From US5672603A, “Apoptosis regulating composition” (Otsuka Pharmaceutical Co., Ltd., priority 1991, dated 1997)
Numbered stars: 1 amine (or outer) side, 2 acyl side, 3 side chain; on linkers, the order of the positions; unused ones are H or OH. Bridge positions count the residues as written; N and C are the ends. Square brackets hold non-standard residues; d marks the D form. Peptide text beside a SMILES is read from it. I, II: the chains in the order shown. Actinocin(9to1) = Cc1c2oc3c(C)ccc(C(=O)[*:1])c3nc-2c(C(=O)[*:2])c(N)c1=O; NMeV = CN[C@H](C(=O)O)C(C)C; Sar = CNCC(=O)O

Assays:
HL-60 cells [1] = assay: HL-60 cell growth inhibition, 3 days; type: cell-based; settings: Homo sapiens, HL-60, 72 h, 30 μg/ml, read-out: Cell growth inhibiting effect (%)
Method: (§1) HL-60 cells were cultivated in RPMI-1640 medium supplemented with 10% of FCS at 37° C. under 5% CO2, and the cell concentration was adjusted to 5×10^4 cells/ml.
(§2) Then, the above-mentioned medium containing 30 μg/ml of each test compound was added to each well of 6-well microplates (Costar), followed by 3 days of incubation at 37° C. under 5% CO2. In a control group, the above medium alone was added and incubation was performed in the same manner. Thereafter, each cultured cell suspension was sampled into an Eppendorf tube and, after staining with 0.2% trypan blue-containing phosphate buffer, viable cells were counted using a hematocytometer.

HL-60 cells [2] = assay: Induction of differentiation of HL-60 cells (CD11b expression, flow cytometry); type: cell-based, human; set-up: reference not given here; settings: 30 μg/ml; 3 days; CD11b fluorescence
Method: as §1, §2
The above cells were adjusted to 1×10^7 cells/ml. To 100 μl of the cell suspension was added 5 μl of a solution of fluorescein isothiocyanate (FITC)-labeled anti-human CD11b antibody (Mol; Coulter) and the reaction was allowed to proceed on ice in the dark for 30 minutes. Then, cells were washed twice with PBS (phosphate-buffered saline; Nissui Pharmaceutical) containing 0.1% of BSA (bovine serum albumin; Sigma), finally suspended in 500 μl of the BSA-containing PBS and measured for fluorescence intensity by flow cytometry using Profile II (Coulter).

apoptosis = settings: literature; cited from earlier work
[3] = test system: small intestine crypt cells; settings: literature; cited from earlier work
lymphocytic tumor cells = settings: X-ray radiation; literature; cited from earlier work
HL-60 cells [4] = settings: literature; cited from earlier work
acute leukemia cells = settings: literature; cited from earlier work
[5] = test system: aged rats with learning disorder; settings: literature; cited from earlier work
PC12 cells = assay: Effect on PC12 cells (morphology, phase contrast microscope); settings: NGF alone group, 0.3% FCS
Method: PC12 cells subcultured in Dulbecco's modified Eagle's medium (D-MEM) supplemented with 5% heat-inactivated (56° C., 30 minutes) horse serum and 10% fetal calf serum (FCS) were transferred onto collagen-coatedplastic Petri dishes (35 mm in diameter) at a concentration of 6×10^4 cells/3 ml medium.

nerve cells = settings: administration in advance; literature; cited from earlier work
sympathetic nerve cells = settings: literature; cited from earlier work

Molecule: COc1cc(C(=O)N2CCN(c3ccc4c(c3)CCC(=O)N4)CC2)cc(OC)c1OC [Compound 2, 6-[4-(3,4,5-Trimethoxybenzoyl)-1-piperazinyl]-3,4-dihydrocarbostyril]
- inhibition at 30 µg/mL (HL-60 cells [1]): 20.2%

Molecule: COc1cc(C(=O)N2CCN(c3ccc4c(c3)NC(=O)CC4)CC2)cc(OC)c1OC [Compound 3, 7-[4-(3,4,5-Trimethoxybenzoyl)-1-piperazinyl]-3,4-dihydrocarbostyril]
- Induction of differentiation promoting effect (HL-60 cells [2]): 384

Molecule: COc1ccc(C(=O)N2CCN(c3ccc4c(c3)NC(=O)CC4)CC2)cc1OC [Compound 4, 7-[4-(3,4-Dimethoxybenzoyl)-1-piperazinyl]-3,4-dihydrocarbostyril]
- Induction of differentiation promoting effect (HL-60 cells [2]): 383

Molecule: CCOc1ccc(C(=O)N2CCN(c3ccc4c(c3)CCC(=O)N4)CC2)cc1 [Compound 5, 6-[4-(4-Ethoxybenzoyl)-1-piperazinyl]-3,4-dihydrocarbostyril]
- Induction of differentiation promoting effect (HL-60 cells [2]): 232

Molecule: COc1ccc(C(=O)N2CCN(c3cccc4c3CCC(=O)N4)CC2)cc1OC [Compound 6, 5-[4-(3,4-Dimethoxybenzoyl)-1-piperazinyl]-3,4-dihydrocarbostyril]
- Induction of differentiation promoting effect (HL-60 cells [2]): 303

Molecule: COc1ccc(C(=O)N2CCN(c3ccc4[nH]c(=O)ccc4c3)CC2)cc1OC [Compound 7, 6-[4-(3,4-Dimethoxybenzoyl)-1-piperazinyl]carbostyril]
- inhibition at 30 µg/mL (HL-60 cells [1]): 24.1%
- Induction of differentiation promoting effect (HL-60 cells [2]): 898

Molecule: COc1ccc(C(=O)N2CCN(c3cccc4c3NC(=O)CC4)CC2)cc1OC [Compound 8, 8-[4-(3,4-Dimethoxybenzoyl)-1-piperazinyl]-3,4-dihydrocarbostyril]
- inhibition at 30 µg/mL (HL-60 cells [1]): 24.9%
- Induction of differentiation promoting effect (HL-60 cells [2]): 344

Molecule: Cc1c2oc3c(C)ccc(C(=O)N[C@@H]4C(=O)N[C@H](C(C)C)C(=O)N5CCC[C@H]5C(=O)N(C)CC(=O)N(C)[C@@H](C(C)C)C(=O)O[C@@H]4C)c3nc-2c(C(=O)N[C@@H]2C(=O)N[C@H](C(C)C)C(=O)N3CCC[C@H]3C(=O)N(C)CC(=O)N(C)[C@@H](C(C)C)C(=O)O[C@@H]2C)c(N)c1=O [actinomycin D] (I: T[dV]P[Sar][NMeV] / II: T[dV]P[Sar][NMeV]; ester I:1-I:C, II:1-II:C; linker I:N-II:N via Actinocin(9to1))
- Repression of apoptosis (apoptosis): capable of repressing apoptosis
- Apoptosis induction in small intestine crypt cells [3]: apoptosis induction
- Apoptosis of lymphocytic tumor cells (lymphocytic tumor cells): potentiates
- Apoptosis induction in HL-60 cells (HL-60 cells [4]): apoptosis induction

Molecule: C[C@@H]1C[C@@H]([C@H](O)CC2CC(=O)NC(=O)C2)C(=O)[C@@H](C)C1 [cycloheximide]
- Repression of apoptosis (apoptosis): capable of repressing apoptosis
- Apoptosis induction in acute leukemia cells (acute leukemia cells): apoptosis induction
- Apoptosis of lymphocytic tumor cells (lymphocytic tumor cells): suppresses
- Apoptosis induction in HL-60 cells (HL-60 cells [4]): apoptosis induction

Molecule: GM-CSF: granulocyte macrophage colony stimulating factor
- Repression of apoptosis (apoptosis): repress apoptosis

Molecule: NGF: nerve growth factor (NGF, Wako Pure Chemical)
- Recovery from learning disorder [5]: can recover from learning disorder
- Formation of nerve-like processes, NGF stimulation (PC12 cells): formation of nerve-like processes
- Nerve cell death in development stage (nerve cells): complete inhibition of nerve cell death
- Programmed death of sympathetic nerve cells (sympathetic nerve cells): can inhibit programmed death of sympathetic nerve cells

Molecule: bcl-2 gene product: bcl-2 gene product
- Repression of apoptosis (apoptosis): repress apoptosis

B1: lymphotoxin (LT): lymphotoxin (LT) (protein, UniProt P01374 35-205, looked up)
Lymphotoxin-alpha: LPGVGLTPSAAQTARQHPKMHLAHSTLKPAAHLIGDPSKQNSLLWRANTDRAFLQDGFSLSNNSLLVPTSGIYFVYSQVVFSGKAYSPKATSSPLYLAHEVQLFSSQYPFHVPLLSSQKMVYPGLQEPWLHSMYHGAAFQLTQGDQLSTHTDGIPHLVLSPSTVFFGAFAL
- Induction of apoptosis (apoptosis): induced

B2: G-CSF: granulocyte colony stimulating factor (protein, UniProt P09919 31-207, looked up)
Granulocyte …: TPLGPASSLPQSFLLKCLEQVRKIQGDGAALQEKLVSECATYKLCHPEELVLLGHSLGIPWAPLSSCPSQALQLAGCLSQLHSGLFLYQGLLQALEGISPELGPTLDTLQLDVADFATTIWQQMEELGMAPALQPTQGAMPAFASAFQRRAGGVLVASHLQSFLEVSYRVLRHLAQP
- Repression of apoptosis (apoptosis): repress apoptosis
